PubChem BioAssay (NCI)
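Protocol summary: plate cells (96-well), add compound at 5 concentrations, incubate 48 h, interpolate endpoints linearly. TGI denotes the concentration required for complete inhibition of growth.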

Columns and labels:
Experiment in all cases: NCI anticancer screen, dose series, 48 h
NCI-H522 lung = system: NCI-H522 lung
SF-539 CNS = system: SF-539 CNS
NCI/ADR-RES ovarian = system: NCI/ADR-RES ovarian
SNB-19 CNS = system: SNB-19 CNS
UACC-62 melanoma = system: UACC-62 melanoma
NCI-H226 lung = system: NCI-H226 lung
HL-60(TB) leukemia = system: HL-60(TB) leukemia
MOLT-4 leukemia = system: MOLT-4 leukemia
A498 renal = system: A498 renal
SK-OV-3 ovarian = system: SK-OV-3 ovarian
HOP-62 NSCLC = system: HOP-62 NSCLC
COLO 205 colon = system: COLO 205 colon
K-562 leukemia = system: K-562 leukemia

| SMILES | TGI (NCI-H522 lung) [µM] | TGI (SF-539 CNS) [µM] | TGI (NCI/ADR-RES ovarian) [µM] | TGI (SNB-19 CNS) [µM] | TGI (UACC-62 melanoma) [µM] | TGI (NCI-H226 lung) [µM] | TGI (HL-60(TB) leukemia) [µM] | TGI (MOLT-4 leukemia) [µM] | TGI (A498 renal) [µM] | TGI (SK-OV-3 ovarian) [µM] | TGI (HOP-62 NSCLC) [µM] | TGI (COLO 205 colon) [µM] | TGI (K-562 leukemia) [µM] |
| --- | --- | --- | --- | --- | --- | --- | --- | --- | --- | --- | --- | --- | --- |
| O=[N+]([O-])CC(SCc1ccccc1)c1ccc2c(c1)OCO2 (stereo not given) | 28.3 | 10.9 | 28.8 | 28 | 25.2 | 23.2 | 3.68 | 21.1 | 18.8 | 28.6 | 33 | 21.1 | 4.19 |
| COc1ccc(C(=O)N2CCN(c3ccc4c(c3)OCC(=O)N4)CC2)cc1 | > 100 | > 100 | > 100 | > 100 | > 100 | > 100 | > 100 | > 100 |  | > 100 | > 100 | > 100 |  |
| c1ccc2nc3[nH]c4ccccc4c3cc2c1 | 1.52 | 1.23 | 8.28 | 4.43 | 2.2 | 18.3 | 0.726 | 1.36 | 43.1 | 79.9 |  | 1.53 | > 100 |
| C[n+]1c2ccccc2c(CNC(CCC(N)=O)C(=O)O)c2ccccc21 (stereo not given) | 3.18 | 5.61 | 14 | 16.3 | 6.19 | 18.3 | 7.65 | 10 | 6.93 | 19.7 | 12.3 | 2.14 | 6.51 |
| C=CCN1C(=O)/C(=C/c2ccc(C)cc2)N=C1SC/C=C/C | > 100 | > 100 | > 100 | > 100 | > 100 | > 100 | 47.9 | 37.8 | 84.9 | > 100 | > 100 | 90.5 | 89.4 |
| COC(=O)[C@H]1[C@H](C(=O)OC)[C@@H](C)c2c(ccc3c2[nH]c2ccccc23)[C@@H]1C | > 100 | > 100 | > 100 | > 100 | > 100 | > 100 | > 100 | 6.7 | > 100 | > 100 | > 100 | > 100 | > 100 |
| Oc1ccc(-c2nc3cc(C(F)(F)F)ccc3n2CC2CCCN3CCCCC23)cc1 (stereo not given) | 29 | 34.6 | 32.9 |  |  | 32.2 | 12.3 | 33.5 | 29.3 | 27.6 | 26 |  | 30.3 |
| FC(F)(F)c1ccc2c(c1)nc(Cc1ccccc1)n2C[C@@H]1CCCN2CCCCC12 (stereo not given in full) | 31.6 | 35.6 | 30.9 | 28.6 | 30.7 | 40.4 | 13.9 | > 52.7 | 29.1 | 31.3 | 28.7 | 31.2 | > 64.8 |
| Cc1cc(C)c2c(n1)S(=O)(=O)N(CCCN1CCN(c3cccc(C(F)(F)F)c3)CC1)/C(=C(\O)c1ccccc1)C2=O | 88.9 | 98.7 | 22.4 | > 100 | 27.6 | 7.92 | 8.97 | 10.8 | > 100 | 84.7 | > 100 | 14.7 | > 100 |
| OC(c1cccs1)c1cc2ccccc2s1 (stereo not given) | > 10 | > 10 | > 10 | > 10 | > 10 | > 10 | > 10 | > 10 |  | > 10 | > 10 | > 10 | > 10 |
| COC(=O)c1ccc2n1C1CC3CC(CC2C3)C1 | > 100 | > 100 | > 100 | > 100 | > 100 | > 100 | 54.7 | > 100 | > 100 | > 100 | > 100 | > 100 | > 100 |
| COC(=O)NCCc1[nH]nc2c1C(=O)C=C(OC)C2=O | 44.3 | 33.5 | > 100 | 45.6 | 48.7 | 50.5 | 44 | 46.4 |  | > 100 | 36 | 52.8 | 37.3 |
| NC1CC2C3CCC2C1C3=O (stereo not given) | > 100 | > 100 | > 100 | > 100 | > 100 | > 100 | > 100 | > 100 | > 100 | > 100 | > 100 | > 100 | > 100 |
| CC(=O)Oc1ccn2nc(C)c(Br)c2c1Br | 36.8 | 45.7 | > 100 | > 100 | 37.5 | > 60.2 | > 66.5 | 34.9 | 72.9 |  | > 87 | 38 | 50.1 |
| OCCCSc1ccccc1SCCCO | > 100 | > 100 | > 100 | > 100 | > 100 |  | > 100 | > 100 |  | > 100 | > 100 | > 100 | > 100 |
| CC1=C(C(=O)OCCO[N+](=O)[O-])C(c2ccccc2C(F)(F)F)C(C(=O)OC(C)C)=C(C)N1 (stereo not given) | 44.4 | 31.6 | 57.8 | 78.3 | 80.2 | 27.4 | > 100 | > 100 | 60.6 | > 100 | 45.8 | 28.4 | > 100 |
| CCOC(=O)c1c(C)n(Cc2ccccc2)c2c1cc(O)c1[nH]c3c(c12)CCCC3 | 2.58 | 5.54 | 18.5 | 16.5 | 4.32 |  | 5.52 | 12.6 |  | 24.5 | 24.6 | 18.9 | 10.9 |
| O=C(O)c1c(CC(Cc2ccc3c(c2)CCCC3)C(=O)O)ccc2c1CCCC2 (stereo not given) | > 100 | > 100 | > 100 | > 100 | > 100 | > 100 | > 100 | > 100 | > 100 | > 100 | > 100 | > 100 | > 100 |

| SMILES | TGI (NCI-H522 lung) [µM] | TGI (SF-539 CNS) [µM] | TGI (NCI/ADR-RES ovarian) [µM] | TGI (SNB-19 CNS) [µM] | TGI (UACC-62 melanoma) [µM] | TGI (NCI-H226 lung) [µM] | TGI (HL-60(TB) leukemia) [µM] | TGI (MOLT-4 leukemia) [µM] | TGI (A498 renal) [µM] | TGI (SK-OV-3 ovarian) [µM] | TGI (HOP-62 NSCLC) [µM] | TGI (COLO 205 colon) [µM] | TGI (K-562 leukemia) [µM] |
| --- | --- | --- | --- | --- | --- | --- | --- | --- | --- | --- | --- | --- | --- |
| CCCn1cnc2c(NN=O)ncnc21 | > 100 | > 100 | > 100 | > 100 | > 100 | > 100 | > 100 | > 100 | > 100 |  | > 100 | > 100 | > 100 |
| C=C(C)CCC1CCCCC(CN(C)C)C1=O (stereo not given) | 27.2 | > 100 | > 100 | > 100 | > 100 | > 100 | > 100 | > 100 | > 100 | > 100 | > 100 | > 100 | > 100 |
| COC(=O)C1OC(O[C@H]2CC[C@]3(C)[C@H]4CC=C5[C@@H]6CC(C)(C)CC[C@]6(C(=O)OC)[C@H](O)C[C@@]5(C)[C@]4(C)CC[C@H]3C2(C)C)C(O)C(O)C1O (stereo not given in full) | 3.06 |  | 26.3 | 26.9 | 25.1 | 31.7 | 13.7 | 25.2 | 26.1 | 28.2 | 31.1 | 17.5 | 15 |
| COc1ccc(CNc2nc(NCc3ccc(OC)cc3)nc(Nc3ccccc3)n2)cc1 | > 100 | > 100 | > 100 | > 100 | > 100 | > 100 | > 100 | > 100 | > 100 | > 100 | > 100 | > 100 | > 100 |
| COC1(OC)N=C(N)C2(C#N)C(C)CC(=O)N(N(C)C)C12C#N (stereo not given) | > 100 | > 100 | > 100 | > 100 | > 100 | > 100 | > 100 | > 100 | > 100 | > 100 | > 100 | > 100 | > 100 |
| O=[N+]([O-])c1ccc(Cl)cc1C1ON=C(c2ccccc2)N1C12CC3CC(CC(C3)C1)C2 (stereo not given) | > 100 | > 100 | > 100 | > 100 | > 100 | > 100 | > 100 | > 100 | > 100 | > 100 | > 100 | > 100 | > 100 |
| OCCSCCCSCCO | > 100 | > 100 | > 100 | > 100 | > 100 |  | 80.7 | > 100 |  | > 100 | > 100 | > 100 | > 100 |
| O=C1Oc2ccccc2C(=O)/C1=C/N1C(=O)/C(=C/c2ccc([N+](=O)[O-])cc2)SC1=S | 70.1 | 45 | 95.7 | 79.1 | > 100 | 53.4 | > 100 | > 100 | 27.6 | 89.5 | 40.8 | 53.2 | 69.8 |
| Oc1cc(Cl)cc2cc(Br)cnc12 | > 69.9 | > 100 | > 54.5 | > 100 | > 77.6 | > 88.5 | 1.37 | 6.96 | > 88.7 | > 100 | > 55.1 | > 100 | > 22.6 |
| COC(=O)C1=NN2c3ccccc3C(=O)OCCC2C1 (stereo not given) | > 100 | > 100 | > 100 |  | > 100 | > 100 | > 100 | > 100 | > 100 | > 100 | > 100 | > 100 | > 100 |
| C#CC(O)/C=C/CCCCCCC#CC/C=C\CC#CCCCCCC/C=C/C(O)C#C (stereo not given) |  | 41.2 | 8.26 | 24.8 | 7.38 | 14 | 3.86 | 0.371 | 9.06 | 32.1 | 4.72 | 4.29 | 9.67 |
| CCOC(=O)CCC(C(=O)OCC)n1nc2ccc(Nc3c(C)[n+]([O-])c4cc(Cl)ccc4[n+]3[O-])cc2n1 (stereo not given) | > 100 | > 100 | > 100 | > 100 | > 100 | > 100 | > 100 | > 100 | > 100 | > 100 | > 100 | > 100 | > 100 |
| COc1nn(Cc2ccccc2F)c2ccc([N+](=O)[O-])cc12 | > 100 | > 100 | > 100 | > 100 |  | > 100 | > 100 | > 100 | > 92.3 |  | > 100 | > 100 | > 100 |
| Clc1ccc(OCc2nnc3sc(-c4ccc(-c5ccc(Cl)cc5Cl)o4)nn23)c(Cl)c1 | 34.6 | 32.2 | 45.1 | 56.6 | > 100 | 41.5 | 96.6 | 41.3 | 33.4 | 48.3 | 31.3 | 73.7 | 62.7 |
| CO/N=C1\CCC2(O)C3Cc4ccc(O)c5c4C2(CCN3CC2CC2)[C@H]1O5 (stereo not given in full) | > 100 | > 100 | > 100 | > 100 | > 100 | > 100 | > 100 | > 100 | > 100 | > 100 | > 100 | > 100 | > 100 |
| CC(C)(C)NC(NC(C)(C)C)=C(C(Cl)=C(Cl)Cl)[N+](=O)[O-] |  | > 100 | > 100 | > 100 | > 100 | > 100 | > 100 | > 100 | > 100 | > 100 | > 100 | > 100 | > 100 |
| N#Cc1c(=O)c2cc([N+](=O)[O-])ccc2n2c1[nH]c1ccccc12 | 5.75 | > 100 | > 56.4 | > 72.9 | > 54.1 | > 51 | > 100 | > 76.1 | > 93.1 | > 100 | 97.7 | > 44.4 | > 23.4 |
| Cc1nc2c(nc1C)-c1c(c3c(n1Cc1ccccc1)C(=O)CCC3)C(=O)C2=O | 7.28 |  | > 100 | 28.8 | 50.9 | 48.4 | 97.7 | > 100 | 38 | > 100 | > 100 | > 100 | > 100 |
